Data as given in patent US4624955A, “6H-isoxazolo[3,4-d]pyrazolo[3,4-b]pyridines, method for their preparation and use as anxiolytic agents” (Hoechst-Roussel Pharmaceuticals, priority 1985, dated 1986).

Target: benzodiazepin recognition sites in a membrane preparation from rat brain
Test: 3H-Flunitrazepam binding (displacement from benzodiazepine recognition sites; anxiolytic activity)
Design: species or system rat (male Wistar)
Settings: rat cerebral cortex membranes; 2 nM 3H-flunitrazepam; pH 6.9; 20 minutes at 0-4 °C; log-probit analysis

With `CCn1ncc2c3noc(-c4cccc(Cl)c4)c3cnc21` [3-(3-Chlorophenyl)-6-ethyl-6H-isoxazolo[3,4-d]pyrazolo[3,4-b]pyridine] as the molecule, how does the IC50 read?
Its IC50 is 4400 nM.

For `CCn1ncc2c3noc(-c4ccc(Cl)cc4)c3cnc21` [3-(4-Chlorophenyl)-6-ethyl-6H-isoxazolo[3,4-d]pyrazolo[3,4-b]pyridine], which IC50 is on record?
The IC50 was 400 nM.

Which IC50 does the source give for `CCn1ncc2c3noc(-c4ccccc4OC)c3cnc21` [6-Ethyl-3-(2-methoxyphenyl)-6H-isoxazolo[3,4-d]pyrazolo[3,4-b]pyridine] here?
The IC50 was 2000 nM.

With `CCn1ncc2c3noc(-c4cccc(F)c4)c3cnc21` [6-Ethyl-3-(3-fluorophenyl)-6H-isoxazolo[3,4-d]pyrazolo[3,4-b]pyridine] as the molecule, how does the IC50 read?
Its IC50 is 2300 nM.

For `CCn1ncc2c3noc(-c4ccc(F)cc4)c3cnc21` [6-Ethyl-3-(4-fluorophenyl)-6H-isoxazolo[3,4-d]pyrazolo[3,4-b]pyridine], which IC50 is on record?
The IC50 was 530 nM.

Which IC50 does the source give for `CCn1ncc2c3noc(-c4ccc(OC)cc4)c3cnc21` [6-Ethyl-3-(4-methoxyphenyl)-6H-isoxazolo[3,4-d]pyrazolo[3,4-b]pyridine] here?
Its IC50 is 1200 nM.

With `CCn1ncc2c3noc(-c4ccc(C)cc4)c3cnc21` [6-Ethyl-3-(4-tolyl)-6H-isoxazolo[3,4-d]pyrazolo[3,4-b]pyridine] as the molecule, how does the IC50 read?
Its IC50 is 990 nM.

With `CCn1ncc2c3noc(-c4ccccc4)c3cnc21` [6-Ethyl-3-phenyl-6H-isoxazolo[3,4-d]pyrazolo[3,4-b]pyridine] as the molecule, how does the IC50 read?
Its IC50 is 470 nM.

With `CNC1=Nc2ccc(Cl)cc2C(c2ccccc2)=[N+]([O-])C1` [Chlordiazepoxide, reference compound] as the molecule, how does the IC50 read?
Its IC50 is 340 nM.
